# From the supplement of paper PMC10307832
# Compound: COc1cc([C@@H]2c3cc4c(cc3[C@@H](O[C@@H]3O[C@@H]5CO[C@@H](C)O[C@H]5[C@H](O)[C@H]3O)[C@H]3COC(=O)[C@H]23)OCO4)cc(OC)c1O [Etoposide] + CS(=O)(=O)CCNCc1ccc(-c2ccc3ncnc(Nc4ccc(OCc5cccc(F)c5)c(Cl)c4)c3c2)o1 [Lapatinib] (partner 2 µM)
# Assay: relative viability (nuclei count vs DMSO), 5 days (fraction); higher = more cells survive
# Details: first compound 0.1 µM
# In short: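 Relative viability divides the nuclei count in treated wells by that in vehicle wells. Lung cancer cell lines were seeded in 1536-well plates, dosed by pin tool the next day, and fixed and stained after 5 days in one step with final 0.05% Triton X-100, 1% formaldehyde and 1 ug/ml Hoechst. Dosing was a single drug or a fixed anchor-drug dose plus five library-drug doses (not always all listed) in √10 steps, and values are medians of duplicate plates imaged at 4×.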
row,Cell Line,relative viability
1,NCI-H1651,0.614
2,EPLC-272H,0.497
3,NCI-H23,0.608
4,NCI-H1792,0.883
5,NCI-H1355,0.472
6,NCI-H322M,0.55
7,NCI-H1437,0.577
8,NCI-H1755,1.02
9,NCI-H2023,0.293
10,HCC-15,0.846
11,PC-3 [JPC-3],0.344
12,EKVX,0.153
13,LC-2-ad,0.906
14,NCI-H1563,0.817

# Same assay, conditions: first compound 0.3162 µM
row,Cell Line,relative viability
1,NCI-H1734,0.515
2,NCI-H520,0.72
3,NCI-H2405,0.77
4,SW 1573,0.696
5,NCI-H1395,0.836
6,201T,0.921
7,NCI-H1915,0.749
8,HCC-827,0.208
9,LXF-289,0.601
10,NCI-H2347,0.406
11,NCI-H1299,0.776
12,NCI-H650,0.418
13,CAL-12T,0.52
14,NCI-H1651,0.199
15,EPLC-272H,0.807
16,NCI-H23,0.324
17,NCI-H1792,0.798
18,NCI-H1355,0.775
19,NCI-H322M,0.586
20,NCI-H1437,0.398
21,NCI-H1755,0.988
22,NCI-H2023,0.372
23,HCC-15,0.329
24,NCI-H1793,0.687
25,PC-3 [JPC-3],0.475
26,EKVX,0.159
27,LC-2-ad,0.649
28,NCI-H1563,0.646

# Same assay, conditions: first compound 1 µM
row,Cell Line,relative viability
1,NCI-H1734,0.273
2,NCI-H520,0.437
3,NCI-H2405,0.275
4,SW 1573,0.267
5,NCI-H1395,0.74
6,201T,0.729
7,NCI-H1915,0.524
8,HCC-827,0.134
9,LXF-289,0.222
10,NCI-H2347,0.422
11,NCI-H1299,0.817
12,NCI-H650,0.207
13,CAL-12T,0.356
14,NCI-H1651,0.121
15,EPLC-272H,0.408
16,NCI-H23,0.215
17,NCI-H1792,0.595
18,NCI-H1355,0.248
19,NCI-H322M,0.389
20,NCI-H1437,0.186
21,NCI-H1755,0.71
22,NCI-H2023,0.0709
23,HCC-15,0.152
24,NCI-H1793,0.288
25,PC-3 [JPC-3],0.374
26,EKVX,0.143
27,LC-2-ad,0.154
28,NCI-H1563,0.526
